Source: patent publication US4607031A, “Novel ethyl benzylphosphinate derivatives, process for production thereof, and their use as calcium antagonist” (priority 1984, dated 1986)

Columns and labels:
[1] = target: T1, taenia preparation isolated from caecum (Cavia porcellus); assay: Calcium antagonistic activity (isolated taenia preparation from caecum, Ca2+ concentration-response in K+-rich solution); format: cell-based; conditions: guinea pig taenia caeci; Ca2+-free, K+-rich Ringer-Lock solution, 30±1° C.; CaCl2 cumulatively added; read-out: Calcium antagonistic activity (pA2 values, mean ± standard error) (converted)
T1 construct: The taenia preparation in a length of about 2 cm was isolated from caecum; from tissue; host or cells: guinea pig taenia caeci (isolated smooth muscle strip)
Procedure: Male guinea pigs, weighing 405-500 g, were stunned and bled. The taenia preparation in a length of about 2 cm was isolated from caecum and suspended in an organ bath filled with Ca^2+ -free Ringer-Lock solution (composition, mM: NaCl 154, KCl 5.6, NaHCO3 2.3, glucose 5.5). The bathing solution was maintained at 30±1° C. and bubbled with air. The contractile response was recorded using an isotonic transducer (TD-112S made by Nihon Kohden Co., Ltd.) under a load of 0.5 g.
After sufficient incubation to remove Ca^2+, the bathing solution was replaced by Ca^2+ -free, K^+ -rich Ringer-Lock solution (composition, mM: NaCl 59.6, KCl 100, NaHCO3 2.3, glucose 5.5). An aqueous solution of CaCl2 ([…]) was cumulatively added to the bathing solution every 10 minutes, and a concentration-response curve for Ca^2+ was obtained. After washing out Ca^2+ the same procedure as above was carried out in the presence of each of the test compounds, and the pA2 value of the calcium antagonistic activity was calculated from the difference between the concentration-response curves obtained in the absence and presence of the test compound.
Each of the test compounds was dissolved in 5% ethanol and added to the bathing solution (the final concentration of ethanol was 0.05%).

Mongrel dogs = assay: Coronary vasodilating activity and hypotensive activity in anesthetized dogs; format: in vivo, dog; conditions: Canis lupus familiaris, iv; for ED15: read-out: Mean systemic blood pressure lowering activity MBP-DD15; for ED75: dose which increases coronary blood flow by 75%, anesthetized mongrel dogs, injected into femoral vein, 0.03 to 0.3 mg/kg, read-out: Coronary blood flow increasing activity CBF-ID75
Procedure: Coronary vasodilating activity was examined by measuring the amount of coronary blood flow as an index. Mongrel dogs weighing 10 to 19 kg were anesthetized by intravenously injecting sodium pentobarbital (30 mg/kg) and thoracotomized at the 5th left intercostal space under artificial ventilation. After incision of the pericardiac membrane, a flow probe was placed at the circumflex banch of the left coronary artery and led to an electromagnetic flow meter (MFV-2100 made by Nihon Kohden Co., Ltd.). The systemic blood pressure of the animals was measured by a pressure transducer (MPU-0.5 made by Nihon Kohden Co., Ltd.) connected to the cannulated left femoral artery. The coronary blood flow and the systemic blood pressure were recorded on a polygraph (RM-85 made by Nihon Kohden Co., Ltd.). Each of the test compounds was dissolved in ethanol/saline solution (1/1, V/V) and injected into the femoral vein.
Each of the test compounds was administered in a dose of 0.03 to 0.3 mg/kg, and doses which increase the coronary blood flow by 75% (CBF-ID75) and decrease the mean systemic blood pressure by 15% (MDP-DD15) were calculated from the regression lines.

Acute toxicity, oral = conditions: mouse, in vivo, ddY male mice, suspended in 0.5% carboxymethyl cellulose, 7 days

T1 sequence (O35505 whole entry): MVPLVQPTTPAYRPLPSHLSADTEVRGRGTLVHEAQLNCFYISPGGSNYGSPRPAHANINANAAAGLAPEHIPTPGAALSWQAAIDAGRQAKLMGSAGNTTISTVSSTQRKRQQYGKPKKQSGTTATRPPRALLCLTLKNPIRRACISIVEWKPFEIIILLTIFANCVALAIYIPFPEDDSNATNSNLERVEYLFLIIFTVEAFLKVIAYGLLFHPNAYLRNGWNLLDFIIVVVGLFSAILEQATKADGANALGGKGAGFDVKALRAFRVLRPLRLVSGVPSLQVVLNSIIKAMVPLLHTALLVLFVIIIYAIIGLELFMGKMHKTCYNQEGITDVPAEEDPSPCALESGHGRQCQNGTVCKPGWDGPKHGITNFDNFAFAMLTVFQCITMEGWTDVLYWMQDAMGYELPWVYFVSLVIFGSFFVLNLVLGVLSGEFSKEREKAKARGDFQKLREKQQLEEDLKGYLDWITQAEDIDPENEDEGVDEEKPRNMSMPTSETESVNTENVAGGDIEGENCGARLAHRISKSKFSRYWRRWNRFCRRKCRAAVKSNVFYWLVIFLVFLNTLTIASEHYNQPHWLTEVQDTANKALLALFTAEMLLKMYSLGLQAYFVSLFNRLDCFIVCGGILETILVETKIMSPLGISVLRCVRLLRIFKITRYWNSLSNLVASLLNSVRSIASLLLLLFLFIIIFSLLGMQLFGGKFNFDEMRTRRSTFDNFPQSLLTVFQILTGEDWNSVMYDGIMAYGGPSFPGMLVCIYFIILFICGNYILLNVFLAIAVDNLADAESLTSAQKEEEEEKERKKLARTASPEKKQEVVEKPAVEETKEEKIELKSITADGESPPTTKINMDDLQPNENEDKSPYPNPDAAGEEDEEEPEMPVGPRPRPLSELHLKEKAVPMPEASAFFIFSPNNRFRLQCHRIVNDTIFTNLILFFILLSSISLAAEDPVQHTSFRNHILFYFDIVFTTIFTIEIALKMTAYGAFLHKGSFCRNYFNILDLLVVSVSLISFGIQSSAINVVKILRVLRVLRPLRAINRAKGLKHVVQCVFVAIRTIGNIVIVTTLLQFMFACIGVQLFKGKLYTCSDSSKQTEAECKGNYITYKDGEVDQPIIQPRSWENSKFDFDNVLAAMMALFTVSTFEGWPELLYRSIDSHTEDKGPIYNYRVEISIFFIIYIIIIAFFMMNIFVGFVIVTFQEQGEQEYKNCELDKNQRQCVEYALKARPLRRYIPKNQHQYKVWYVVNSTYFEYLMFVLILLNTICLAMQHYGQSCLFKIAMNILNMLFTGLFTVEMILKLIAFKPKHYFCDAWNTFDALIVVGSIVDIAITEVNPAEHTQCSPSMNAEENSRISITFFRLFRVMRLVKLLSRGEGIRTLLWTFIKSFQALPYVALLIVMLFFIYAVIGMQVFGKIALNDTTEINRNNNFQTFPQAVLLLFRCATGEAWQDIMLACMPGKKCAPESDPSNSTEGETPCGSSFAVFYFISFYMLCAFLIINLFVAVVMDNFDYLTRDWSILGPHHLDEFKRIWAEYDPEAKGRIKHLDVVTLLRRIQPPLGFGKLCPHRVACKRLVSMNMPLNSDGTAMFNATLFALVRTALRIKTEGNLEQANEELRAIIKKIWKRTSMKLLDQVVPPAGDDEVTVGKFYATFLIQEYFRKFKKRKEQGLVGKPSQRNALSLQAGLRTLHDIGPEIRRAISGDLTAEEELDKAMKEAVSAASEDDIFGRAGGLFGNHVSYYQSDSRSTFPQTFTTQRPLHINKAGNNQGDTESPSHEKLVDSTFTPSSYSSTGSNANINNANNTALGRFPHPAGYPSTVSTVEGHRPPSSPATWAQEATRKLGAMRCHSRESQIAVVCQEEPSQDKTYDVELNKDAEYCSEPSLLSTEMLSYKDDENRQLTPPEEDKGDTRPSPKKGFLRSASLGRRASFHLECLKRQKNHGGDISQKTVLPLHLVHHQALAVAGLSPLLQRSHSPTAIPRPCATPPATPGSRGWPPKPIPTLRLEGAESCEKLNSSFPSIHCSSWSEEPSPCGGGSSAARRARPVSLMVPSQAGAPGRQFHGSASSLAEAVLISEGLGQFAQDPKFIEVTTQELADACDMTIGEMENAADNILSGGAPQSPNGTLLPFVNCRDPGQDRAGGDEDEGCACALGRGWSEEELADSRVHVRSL

CCOP(=O)(Cc1ccc(-c2nc3ccccc3s2)cc1)N1CCCC1=O (centres unmarked) [Compound 100, Ethyl 4-(benzothiazol-2-yl)benzyl-(2-oxopyrrolidino)phosphinate]
Kb [1]: 29.5 nM
ED15 (Mongrel dogs): 0.0387 mg/kg
ED75 (Mongrel dogs): 0.044 mg/kg
LD50 at 168 h (Acute toxicity, oral): > 1000 mg/kg

CCOP(=O)(Cc1ccc(-c2nc3ccccc3s2)cc1)N1CCCCCC1=O (centres unmarked) [Compound 102, Ethyl 4-(benzothiazol-2-yl)benzyl-(2-oxohomopiperidino)phosphinate]
Kb [1]: 34.7 nM
ED15 (Mongrel dogs): 0.054 mg/kg
ED75 (Mongrel dogs): 0.0573 mg/kg
LD50 at 168 h (Acute toxicity, oral): > 1000 mg/kg

CCOP(=O)(Cc1ccc(-c2nc3cc(F)ccc3s2)cc1)N1CCCCC1=O (centres unmarked) [Compound 104, Ethyl 4-(5-fluorobenzothiazol-2-yl)benzyl(2-oxopiperidino)phosphinate]
Kb [1]: 20.9 nM
ED15 (Mongrel dogs): 0.0629 mg/kg
ED75 (Mongrel dogs): 0.0647 mg/kg
LD50 at 168 h (Acute toxicity, oral): > 1000 mg/kg

CCOP(=O)(Cc1ccc(-c2nc3cc(F)ccc3s2)cc1)N1CCCCCC1=O (centres unmarked) [Compound 105, Ethyl 4-(5-fluorobenzothiazol-2-yl)benzyl(2-oxohomopiperidino)phosphinate]
Kb [1]: 18.6 nM
ED15 (Mongrel dogs): 0.0712 mg/kg
ED75 (Mongrel dogs): 0.0583 mg/kg
LD50 at 168 h (Acute toxicity, oral): > 1000 mg/kg

CCOP(=O)(Cc1ccc(-c2nc3cc(F)ccc3s2)cc1)N1CCCC1=O (centres unmarked) [Compound 103, Ethyl 4-(5-fluorobenzothiazol-2-yl)benzyl(2-oxopyrrolidino)phosphinate]
Kb [1]: 18.6 nM
ED15 (Mongrel dogs): 0.0901 mg/kg
ED75 (Mongrel dogs): 0.0644 mg/kg
LD50 at 168 h (Acute toxicity, oral): > 1000 mg/kg

CCOP(=O)(Cc1ccc(-c2nc3ccccc3s2)cc1)OCC [Compound A, diethyl 4-(benzothiazol-2-yl)benzylphosphonate, reference compound]
Kb [1]: 61.7 nM
ED15 (Mongrel dogs): 0.158 mg/kg
ED75 (Mongrel dogs): 0.116 mg/kg
LD50 at 168 h (Acute toxicity, oral): > 1000 mg/kg

CCOP(=O)(Cc1ccc(-c2nc3cc(F)ccc3s2)cc1)N1CCOC1=O (centres unmarked) [Compound 109, Ethyl 4-(5-fluorobenzothiazol-2-yl)benzyl(2-oxo-1,3-oxazolidino)phosphinate]
Kb [1]: 20.4 nM
ED15 (Mongrel dogs): 0.0748 mg/kg
ED75 (Mongrel dogs): 0.0615 mg/kg
LD50 at 168 h (Acute toxicity, oral): > 1000 mg/kg

CCOP(=O)(Cc1ccc(-c2nc3ccccc3s2)cc1)N1CCCCC1=O (centres unmarked) [Compound 101, Ethyl 4-(benzothiazol-2-yl)benzyl-(2-oxopiperidino)phosphinate]
Kb [1]: 35.5 nM
ED15 (Mongrel dogs): 0.0582 mg/kg
ED75 (Mongrel dogs): 0.06 mg/kg
LD50 at 168 h (Acute toxicity, oral): > 1000 mg/kg
